Results: ChEMBL document CHEMBL5113518, “Discovery of a Novel G-Quadruplex and Histone Deacetylase (HDAC) Dual-Targeting Agent for the Treatment of Triple-Negative Breast Cancer” (J Med Chem, 2022)
Calls of active or inactive are those of the source. The calls are words filed in the database; no cut-off is given here.

Columns and labels:
Histone deacetylase [1] = test: Inhibition of HDAC in human HeLa nuclear extract incubated for 30 mins by fluorescence-based Glo-luminescence assay; format: cell-based
Quadruplex DNA [2] = details: dose 1.0 µM
Description: Binding affinity to 5' FAM and 3' TAMRA-labeled c-myc G4-quadruplex DNA Pu22 (unknown origin) assessed as change in melting temperature at 1 uM by fluorescence resonance energy transfer assay

Quadruplex DNA [3] = test: Binding affinity to 5' FAM-labeled c-myc G4-quadruplex DNA Pu22 (unknown origin) by fluorescence quench assay; format: nucleic-acid assay
Quadruplex DNA [4] = test: Binding affinity to 5' FAM-labeled c-myc G4-quadruplex DNA HTG21 (unknown origin) assessed as dissociation constant by surface plasmon resonance assay; format: nucleic-acid assay
MDA-MB-231 [5] = test: Cytotoxicity against human MDA-MB-231 cells harboring wild type BRCA1 and wild BRCA2 assessed as reduction in cell viability; format: functional, cell-based
Quadruplex DNA [6] = test: Binding affinity to 5' FAM-labeled c-myc G4-quadruplex DNA Pu22 (unknown origin) assessed as dissociation constant by surface plasmon resonance assay; format: nucleic-acid assay
Quadruplex DNA [7] = test: Binding affinity to 5' FAM and 3' TAMRA-labeled c-myc G4-quadruplex DNA duplex (unknown origin) assessed as change in melting temperature by fluorescence resonance energy transfer assay; format: nucleic-acid assay
Quadruplex DNA [8] = test: Binding affinity to 5' FAM and 3' TAMRA-labeled […] (unknown origin) assessed as change in melting temperature by fluorescence resonance energy transfer assay; format: nucleic-acid assay
[9] = Stabilization of DNA Pu22 (unknown origin ) single strand assessed as G4-quadruplex formation up to 30 uM in presence of potassium ions by spectrum based circular dichroism analysis
Quadruplex DNA [10] = test: Binding affinity to 5' FAM-labeled […] (unknown origin) assessed as dissociation constant by surface plasmon resonance assay; format: nucleic-acid assay
SUM-159-PT = test: Cytotoxicity against human SUM159PT cells harboring wild type BRCA1 and wild type BRCA2 assessed as reduction in cell viability; format: functional, cell-based
MDA-MB-468 = test: Cytotoxicity against human MDA-MB-468 cells harboring wild type BRCA1 and BRCA2 mutant reduction in assessed as cell viability; format: functional, cell-based
MDA-MB-231 [11] = test: Antitumor activity against human MDA-MB-231 cells xenografted in BALB/c-nu/nu mouse assessed as tumor growth inhibition at 10 mg/kg, ip measured for 31 days; format: functional; details: MDA-MB-231, 744 h, time 31 day, read-out: TGI
BT-549 = test: Cytotoxicity against human BT-549 cells harboring wild type BRCA1 and wild type BRCA2 assessed as reduction in cell viability; format: functional, cell-based
Histone deacetylase [12] = test: Inhibition of HDAC in human MDA-MB-231 cells incubated for 45 mins by luminescence assay; format: cell-based
MDA-MB-231 [13] = test: Antitumor activity against human MDA-MB-231 cells xenografted in BALB/c-nu/nu mouse assessed as increment ratio at 10 mg/kg, ip measured for 31 days; format: functional; details: time 31 day
[14] = Stabilization of DNA Pu22 (unknown origin ) single strand assessed as G4-quadruplex formation in absence of potassium ions by spectrum based circular dichroism analysis; details: dose <= 30.0 µM; DDE = dose-dependent effect
Quadruplex DNA [15] = test: Binding affinity to 5' FAM and 3' TAMRA-labeled c-myc G4-quadruplex DNA HTG21 (unknown origin) assessed as change in melting temperature by fluorescence resonance energy transfer assay; format: nucleic-acid assay

Row | Compound | IC50 (Histone deacetylase [1]) [nM] | ΔTm (Quadruplex DNA [2]) [°C] | DC50 (Quadruplex DNA [3]) [nM] | also measured
1 | CN(C)CCCNC(=O)c1ccc(/C=C2\CCn3c2nc2cc(N4CCN(CCCCCCC(=O)NO)CC4)c(F)cc2c3=O)cc1.Cl | 2100 | 15.9 | 1700 | 
2 | Nc1ccccc1NC(=O)c1ccc(/C=C2\CCn3c2nc2cc(NCCCN4CCCC4)c(F)cc2c3=O)cc1 | 8600 | 0.6 | 600 | 
3 | CN(C)CCCNC(=O)c1ccc(/C=C2\CCn3c2nc2cc(N4CCN(Cc5ccc(C(=O)NO)cc5)CC4)c(F)cc2c3=O)cc1.Cl | 2500 | 4.3 | 200 | 
4 | CN(C)CCCNC(=O)c1ccc(/C=C2\CCn3c2nc2cc(NCCCCCCC(=O)NO)c(F)cc2c3=O)cc1.Cl | 70 | 7.2 | 300 | 
5 | Cl.O=C(CCCCCCNC(=O)c1ccc(/C=C2\CCn3c2nc2cc(NCCCN4CCCC4)c(F)cc2c3=O)cc1)NO | 50 | 3.2 | 3000 | 
6 | CN(C)CCCNC(=O)c1ccc(/C=C2\CCn3c2nc2cc(N4CCN(Cc5ccc(/C=C/C(=O)Nc6ccccc6N)cc5)CC4)c(F)cc2c3=O)cc1 | 8100 | 0.7 | 300 | 
7 | CN(C)CCCNC(=O)c1ccc(/C=C2\CCn3c2nc2cc(N4CCN(CCCCCCCC(=O)Nc5ccccc5N)CC4)c(F)cc2c3=O)cc1 |  | 8.2 | 1200 | 
8 | CN(C)CCCNC(=O)c1ccc(/C=C2\CCn3c2nc2ccc(OCCCCCCC(=O)NO)cc2c3=O)cc1.Cl | 60 | 4.4 | 900 | 
9 | Nc1ccccc1NC(=O)c1ccc(CNC(=O)OCc2cccnc2)cc1 |  | 0.1 |  | 
10 | CN(C)CCCNC(=O)c1ccc(/C=C2\CCn3c2nc2cc(N4CCN(Cc5ccc(/C=C/C(=O)NO)cc5)CC4)c(F)cc2c3=O)cc1.Cl | 1900 | 1.8 | 200 | 
11 | CN(C)CCCNc1cc2nc3n(c(=O)c2cc1F)CC/C3=C\c1ccc(C(=O)Nc2ccccc2N)cc1 | 5800 | 2.3 | 200 | 
12 | CCN(CC)CCCNC(=O)c1ccc(/C=C2\CCn3c2nc2cc(NCCCN4CCCC4)c(F)cc2c3=O)cc1 |  | 17.4 | 1400 | Kd (Quadruplex DNA [4]): > 10000 nM; IC50 (MDA-MB-231 [5]): 10700 nM; Kd (Quadruplex DNA [6]): 1800 nM; ΔTm (Quadruplex DNA [7]): 1.8 °C; ΔTm (Quadruplex DNA [8]): 6.4 °C; Activity [9]: Active; Kd (Quadruplex DNA [10]): 3600 nM; IC50 (SUM-159-PT): 47300 nM; IC50 (MDA-MB-468): 47100 nM; inhibition in vivo at 10 mg/kg (MDA-MB-231 [11]): 48.2%; IC50 (BT-549): 14600 nM; IC50 (Histone deacetylase [12]): > 10000 nM; T/C (MDA-MB-231 [13]): 69.7%; Activity [14]: Dde; ΔTm (Quadruplex DNA [15]): 7.3 °C
13 | O=C(CCCCCCC(=O)Nc1ccccc1)NO [VORINOSTAT] |  |  |  | IC50 (MDA-MB-468): 2300 nM; IC50 (BT-549): 2300 nM; T/C (MDA-MB-231 [13]): 39.3%

Second part, led by results:

Row | IC50 (Histone deacetylase [1]) [nM] | ΔTm (Quadruplex DNA [2]) [°C] | DC50 (Quadruplex DNA [3]) [nM] | Compound | also measured
14 | 1500 | 16.7 | 800 | CN(C)CCCNC(=O)c1ccc(/C=C2\CCn3c2nc2cc(N4CCN(CCCCC(=O)NO)CC4)c(F)cc2c3=O)cc1.Cl | 
15 |  | 0.3 | 200 | CN1CCN(c2cc3nc4n(c(=O)c3cc2F)CC/C4=C\c2ccc(C(=O)Nc3ccccc3N)cc2)CC1 | 
16 |  | 16.4 | 1300 | CN(C)CCCNC(=O)c1ccc(/C=C2\CCn3c2nc2cc(N4CCN(CCCC(=O)NO)CC4)c(F)cc2c3=O)cc1 | 
17 | 1600 | 17.3 | 900 | CN(C)CCCNC(=O)c1ccc(/C=C2\CCn3c2nc2cc(N4CCN(CCCCCC(=O)NO)CC4)c(F)cc2c3=O)cc1.Cl | 
18 |  | 5.7 | 2900 | CN1CCN(c2cc3nc4n(c(=O)c3cc2F)CC/C4=C\c2ccc(C(=O)NO)cc2)CC1 | 
